Experimental findings from PMC6269734, “Synthesis and Pharmacological Activities of Some New Triazolo- and Tetrazolopyrimidine Derivatives” (Molecules, 2013) are described below.

Each structure is given as a SMILES string. Like-named read-outs stand apart in the source and are kept apart here.

One series can be described thus: Acute toxicity (LD50). The following applies: mouse, in vivo, ip; male adult mice, i.p., mortality after 24 h, graphical method. As to the method: To determine the acute toxicity of the compounds, the LD50 values for compounds 2, 3, 6, 9 and 10 were determined by injecting different gradual increased doses of the tested compounds into male adult mice, then calculating the dose corresponding to 50% animal death (Table 3).
Groups of male adult mice, each of six animals, were injected i.p. with graded doses of each of the test compounds. The percentage of mortality in each group of animals was determined 24 h, after injection. Computation of LD50 was processed by a graphical method.

Series [1] deals with carrageenan induced edema. As to the kind of experiment: Anti-inflammatory activity, carrageenan induced edema (paw volume, plethysmometer). In kind it is in vivo, mice. The following applies: for inhibition in vivo at 5 mg/kg: Mus musculus, po, dose 5 mg/kg b.m (p.o.), n = 6, read-out: Edema inhibition (Means ± E.M); for anti-inflammatory activity (in words): grading in the structure activity discussion. As to the method: (§1) Female albino mice (16–18 g) and Sprague Dawley […] (100 g) obtained from the Theodor Bilharz Research Institute (TBRI, Giza city, Egypt) were used. Approval of the institutional animal ethical committee for the animal studies was obtained from the Office of Environmental Health and Radiation Safety, ACUC Protocol 1096-5. The animals were maintained according to accepted standards of animal care.
Newly synthesized thienopyrimidine derivatives were dissolved in 0.5% carboxymethyl cellulose (CMC) as a homogeneous solution and administered […]. One hundred and eight […] were divided into eighteen groups, each group consisting of six animals. Anti-inflammatory activity of the compounds was studied in mice using carrageenan induced edema. A suspension of the tested compound and the reference drug, indomethacin in aqueous solution was administered orally at a dose 5 mg/kg. Control animals were treated with 0.5% CMC only. After 30 min, 0.1 mL of freshly prepared 1.0% carrageenan solution (in formol saline) was injected into the sub-plantar region of the right hind paw according to Hernandez-Perez. The right paw volume was measured using a digital plethysmometer (Model 7150, Ugo Basile, Varese, Italy), directly before and after 1, 2, 3 h, intervals after administration of the tested compounds.
(In general: In the carrageenan paw model, swelling and tenderness develop within hours.)

Series [2] deals with Gastric Ulceration in mice. As to the kind of experiment: Ulcerogenic activity (gastric ulceration in mice). In kind it is in vivo. The conditions noted are these: oral, 6 h; for mean ulcer lesions ± SEM: n = 6. As to the method: as §1
Seventy-two mice were divided into twelve groups. Ulcerogenic activity was evaluated after oral administration of the tested compounds or indomethacin at doses of 10, 50, and 100 mg/kg. Control mice received 0.5% CMC. Food but not water was removed 24 h before administration of the tested compounds. After 6 h, the mice were sacrificed; the stomach was removed and opened along the greater curvature, washed with distilled water and cleaned gently by dipping in saline. The mucosa damage for each stomach was examined using a stereoscopic microscope and compared with the reference drug indomethacin according to the reported procedure.

As usually defined, the LD50 is the dose at which mortality reaches 50%. A high value points to lower toxicity. The molecule `COc1ccc(-c2nc(NN)c3c4c(sc3n2)CCCCCC4)cc1` [Compound 2, 2-(4-Methoxyphenyl)-4-hydrazinocycloocteno[4.5]thieno[2.3-d]pyrimidine] yielded an LD50 at 24 h in “Acute toxicity (LD50)” of 2514 ± 12 mg/kg. The results for the inhibition in vivo at 5 mg/kg in series [1] (1 h), in series [1] (2 h) and in series [1] (3 h) were 42.3 ± 1.1%, 49.3 ± 1.1% and 57.1 ± 1.4%, respectively. For the same molecule, the “anti-inflammatory activity (in words)” value in series [1] is reported as “high”. Besides, the “number of mice lesions bigger than 0.5 mm in length per total no. of mice” value (“number … per total no. of mice” below) in series [2] (dose 10 mg/kg), in series [2] (dose 50 mg/kg) and in series [2] (dose 100 mg/kg) was 0/6 throughout. Further, the “mean ulcer lesions ± SEM” value in series [2] (dose 10 mg/kg), in series [2] (dose 50 mg/kg) and in series [2] (dose 100 mg/kg) was 0 mm throughout.
With `COc1ccc(-c2nc3sc4c(c3c3n[nH]c(=O)c(=O)n23)CCCCCC4)cc1` [Compound 7, 6-(4-Methoxyphenyl)-3,4-dioxo-2H-cycloocteno[4.5]thieno[2,3-d]triazino[1,2.4]-[3,4-a]pyrimidine], the inhibition in vivo at 5 mg/kg came to 20.8 ± 1.4% in series [1] (1 h), 22.3 ± 1.3% in series [1] (2 h) and 25.1 ± 1.4% in series [1] (3 h). The “anti-inflammatory activity (in words)” value in series [1] was “moderate”.
For `COc1ccc(-c2nc3sc4c(c3c3nnnn23)CCCCCC4)cc1` [Compound 6, 5-(4-Methoxyphenyl)-cycloocteno[4.5]thieno[2.3-d]tetrazolo[4.5-e]pyrimidine], the LD50 at 24 h in the series “Acute toxicity (LD50)” was found to be 2047 ± 12 mg/kg. In addition, the values for the inhibition in vivo at 5 mg/kg in series [1] (1 h), in series [1] (2 h) and in series [1] (3 h) were 34.5 ± 1.2%, 42.1 ± 1.3% and 48.2 ± 1.2%, respectively. Further, the “anti-inflammatory activity (in words)” value in series [1] is on record as “high”.
The corresponding values for `COc1ccc(-c2nc3sc4c(c3c3nnc(CC#N)n23)CCCCCC4)cc1` [Compound 3, 5-(4-Methoxyphenyl)-3-cyanomethylcycloocteno[4.5]thieno[2.3-d]triazolo[1,2,4]-[4,5-a]pyrimidine] are 2131 ± 13 mg/kg, 37.2 ± 1.3%, 46.3 ± 1.5%, 54.4 ± 1.1% and “high”.
For the molecule `COc1ccc(-c2nc3sc4c(c3c3nnc(Nc5ccccc5)n23)CCCCCC4)cc1` [Compound 12], the inhibition in vivo at 5 mg/kg stood at 19.4 ± 1.6% in series [1] (1 h), 21.3 ± 1.3% in series [1] (2 h) and 23.3 ± 1.2% in series [1] (3 h). In addition, the “anti-inflammatory activity (in words)” value in series [1] is “moderate”.
The molecule `COc1ccc(-c2nc3sc4c(c3c3nnc(C)n23)CCCCCC4)cc1` [Compound 10, 5-(4-Methoxyphenyl)-3-methyl-2H-cycloocteno[4,5]thieno[2,3-d][1,2,4]triazolo-[4,5-a] pyrimidine] displayed an LD50 at 24 h in the series “Acute toxicity (LD50)” of 2341 ± 11 mg/kg. Also, the inhibition in vivo at 5 mg/kg worked out at 39.1 ± 1.5% in series [1] (1 h), 48.4 ± 1.2% in series [1] (2 h) and 55.6 ± 1.1% in series [1] (3 h). Moreover, the “anti-inflammatory activity (in words)” value in series [1] is recorded as “high”. Also, the “number … per total no. of mice” value in series [2] (dose 10 mg/kg), in series [2] (dose 50 mg/kg) and in series [2] (dose 100 mg/kg) was 0/6 throughout. Besides, the “mean ulcer lesions ± SEM” value in series [2] (dose 10 mg/kg), in series [2] (dose 50 mg/kg) and in series [2] (dose 100 mg/kg) was 0 mm each time.
On to `COc1ccc(C2=Nc3sc4c(c3C3=NCC(=O)N23)CCCCCC4)cc1` [Compound 4], for which the inhibition in vivo at 5 mg/kg in series [1] (1 h) came out at 16.5 ± 1.3%; in series [1] (2 h), 17.2 ± 1.1%; in series [1] (3 h) it was 19.3 ± 1.2%. For the same molecule, the “anti-inflammatory activity (in words)” value in series [1] is “weak”.
For the molecule `COc1ccc(-c2nc3sc4c(c3c3n[nH]c(=O)n23)CCCCCC4)cc1` [Compound 9, 5-(4-Methoxy)phenyl-3-oxo-2H-cycloocteno[4,5]thieno[2,3-d][1,2,4]triazolo[4,5-a]pyrimidine], the 50% lethal dose (LD50) at 24 h in the series “Acute toxicity (LD50)” stood at 1832 ± 12 mg/kg. For the same molecule, the inhibition in vivo at 5 mg/kg came to 31.2 ± 1.2% in series [1] (1 h), 35.1 ± 1.5% in series [1] (2 h) and 40.2 ± 1.6% in series [1] (3 h). Further, the “anti-inflammatory activity (in words)” value in series [1] is given as “high”.
Molecule `COc1ccc2c(c1)c(CC(=O)O)c(C)n2C(=O)c1ccc(Cl)cc1` [Indomethacin, reference compound] registered an LD50 at 24 h in “Acute toxicity (LD50)” of 1817 ± 15 mg/kg. In addition, the results for the inhibition in vivo at 5 mg/kg in series [1] (1 h), in series [1] (2 h) and in series [1] (3 h) were 44.7 ± 1.2%, 52.4 ± 1.2% and 61.2 ± 1.3%, respectively. Also, the “number … per total no. of mice” value in series [2] (dose 10 mg/kg) was 3/6; in series [2] (dose 50 mg/kg), 5/6; in series [2] (dose 100 mg/kg), 6/6. The “mean ulcer lesions ± SEM” value in series [2] (dose 10 mg/kg) came to 1.4 ± 0.2 mm; in series [2] (dose 50 mg/kg), 1.9 ± 0.2 mm; in series [2] (dose 100 mg/kg) it was 2.1 ± 0.2 mm.
Turning to `COc1ccc(-c2nc3sc4c(c3c3nnc(-c5ccccc5)n23)CCCCCC4)cc1` [Compound 14, 5-(4-Methoxyphenyl)-4-phenylcycloocteno[4,5]thieno[2,3-d][1,2,4]triazolo[4,5-c]pyrimidine], the values for the inhibition in vivo at 5 mg/kg in series [1] (1 h) and in series [1] (3 h) were 7.3 ± 1.1% and 11.2 ± 1.5%, respectively. For the same molecule, the “anti-inflammatory activity (in words)” value in series [1] is listed as “weak”.
For the molecule `COc1ccc(-c2nc3sc4c(c3c3nc5ccccc5c(=O)n23)CCCCCC4)cc1` [Compound 5, 8-(4-Methoxyphenyl)-6-oxo-cycloocteno[4.5]thino[2,3-d]pyrimidino[4.3-b]quinazoline], the inhibition in vivo at 5 mg/kg is 11.7 ± 1.1% in series [1] (1 h), 13.2 ± 1.2% in series [1] (2 h) and 15.2 ± 1.5% in series [1] (3 h). Also, the “anti-inflammatory activity (in words)” value in series [1] is “weak”.
For `COc1ccc(C2=Nc3sc4c(c3C3=NNC(=O)CN23)CCCCCC4)cc1` [Compound 8, 6-(4-Methoxyphenyl)-3-oxo-2,4-dihydrocycloocteno[4,5]thieno[2,3-d]triazino-[1,2,4][3,4-a]pyrimidine] the same measures were 21.3 ± 1.2%, 24.6 ± 1.1%, 26.5 ± 1.2% and “moderate”.
